Measurements as given in PMC7920280, “The Multi-Targeting Ligand ST-2223 with Histamine H3 Receptor and Dopamine D2/D3 Receptor Antagonist Properties Mitigates Autism-Like Repetitive Behaviors and Brain Oxidative Stress in Mice” (International Journal of Molecular Sciences, 2021).

Experiments:
Assay type in all cases: in vivo
glutathione (GSH) = assay: Quantification of glutathione (GSH) in brain parts of treated BTBR mice; details: i.p., ST-2223 5 mg/kg, RAM 10 mg/kg, ARP 1 mg/kg, MEM 5 mg/kg, mean ± SEM; for GSH, Striatum: n = 3-6, BTBR vehicle 583 ± 68.8; for GSH, Cerebellum: n = 3-6, BTBR vehicle 827 ± 93.3; for GSH, Prefrontal Cortex: n = 3-6, BTBR vehicle 835 ± 97.4; for GSH, Hippocampus: n = 3-6, BTBR vehicle 1096 ± 16.7
Experimental: (§1) At the end of the behavioral assessments, the animals were sacrificed following previously published protocols. Animals were anesthetized with pentobarbital (40 mg/kg, body weight, i.p.), sacrificed, and perfused via intracardial infusion to wash out the blood, using 1× PBS (0.01 M phosphate buffer, 0.0027 M potassium chloride and 0.137 M sodium chloride) at pH 7.4. […] The brains were then quickly removed and placed on an ice plate. The cerebellum, hippocampus, prefrontal and striatum were excised from the brain and snap-frozen in liquid nitrogen for further use in biochemical assessments. On the day of the biochemical tests, the tissues were homogenized using radioimmunoprecipitation assay (RIPA) buffer (50 mM Tris HCl, pH 7.4, 140 mM NaCl, 1 mM EDTA, 0.5% Triton X-100 and 0.5% sodium deoxycholate) supplemented with protease and phosphatase inhibitors. Then, the homogenates were centrifuged at 14,000 rpm for 30 min (4 °C), and the supernatant was used for evaluation of lipid peroxidation, glutathione, and antioxidant enzymes using spectrophotometric measurements and enzyme-linked immunosorbent assays (ELISA)..
Levels of GSH in tissue homogenates were carried out according to the manufacturer’s instructions of the commercially available Sigma’s glutathione assay kit (Sigma-Aldrich Chemie GmbH, Steinheim), and as previously described. In brief, samples were first deproteinized with 5% 5-sulfosalicylic acid solution, centrifuged to remove the precipitated protein, and then the supernatant was used to estimate GSH. Ten microliter samples or standards were incubated with 150 μL of working mixture (assay buffer + 5,5′-dithiobis (2-nitrobenzoic acid) + GSH reductase) in 96-well plates for 5 min. Diluted NADPH solution (50 µL) was added into each well and mixed thoroughly. Absorbance was measured at 412 nm with the kinetics for 5 min by using the microplate reader. Results are expressed as µM GSH/mg protein.

BTBR and B6 mice = assay: Spontaneous alternation behavior (SAB), Y maze; details: i.p., ST-2223 2.5, 5 and 10 mg/kg, MEM 5 mg/kg, ARP 1 mg/kg
Experimental: The drugs tested included ST-2223 [N-(4-(4-(2-methoxyphenyl)piperazin-1-yl)butyl)-6-(3-(piperidin-1-yl)propoxy)-2-naphthamide] that was designed and synthesized in the Institute of Pharmaceutical and Medicinal Chemistry, Heinrich Heine University Düsseldorf, Germany, and in accordance with previously described methodologies (Supplementary Materials). Aripiprazole (ARP) (1 mg/kg, i.p.) and memantine (MEM, 5 mg/kg, i.p.), as reference drugs, were purchased from Sigma-Aldrich (St. Louis, MO, USA). The CNS-penetrant H3R agonist (R)-α-methylhistamine (RAM, 10 mg/kg, i.p.) was purchased from Sigma-Aldrich, St. Louis, MO, USA. T. Protease and the phosphatase inhibitor cocktail were procured from Thermo Scientific, USA. The assay kit for reduced glutathione (GSH) was obtained from Sigma-Aldrich (St. Louis, MO, USA). The lipid peroxidation assay kit for estimation of malondialdehyde (MDA) was purchased from North West Life Science (Vancouver, WA, USA). The assay kits for superoxide dismutase (SOD) and catalase (CAT) were purchased from Cayman Chemical (Ann Arbor, MI, USA). The drugs were prepared daily using 1% dimethyl sulfoxide (DMSO) in 0.9% saline, for intraperitoneal (i.p.) administration at a volume of 10 mL/kg of body weight. Vehicle treatment consisted of 1% DMSO in 0.9% normal saline. All drugs were i.p. administered 30 min before the behavioral test. The doses of these drugs were chosen based on previous reports. Neurobehavioral assessment was performed blindly with respect to experimental group and drug administration.
The SAB test is based on the exploratory strategy of rodents to explore a new environment. In examining repetitive behaviors, the Y maze test took advantage of the rodents’ natural tendency to spontaneously alternate or choose a different arm of the maze instead of the one they visited on their previous entry (i.e., least recently visited arm). A decrease in the percentage alternation can also be attributed to same arm repeated visits. Spontaneous alternation behavior was measured on a Y maze apparatus, as previously described, with slight modifications. The Y maze composed of three arms (30 cm × 6 cm × 15 cm), where the arms were labeled with letters: A, B, or C. The test mouse was placed in the center of the maze and was allowed to freely explore the maze for 8 min. The number of entries into each arm and the total number of entries were recorded by the observer. A spontaneous alternation was defined as successive entry into three arms on an overlapping triplet set. Percentage spontaneous alternation was calculated as the number of spontaneous alternations (actual alternations) over the total number of entries (possible alternations). Two arm entries were subtracted from the denominator because an alternation required at least 3 entries. The apparatus was cleaned with 70% alcohol solution after each mouse was tested. (1) Percentage spontaneous alternations=Total alternations/(Total arm entries − 2) ×100

[1] = system: superoxide dismutase (SOD); assay: Superoxide dismutase (SOD) activity in brain parts of treated BTBR mice; details: i.p., ST-2223 5 mg/kg, RAM 10 mg/kg, ARP 1 mg/kg, MEM 5 mg/kg, mean ± SEM; for SOD, Prefrontal Cortex: n = 3-6, BTBR vehicle 45.1 ± 2.8; for SOD, Hippocampus: n = 3-6, BTBR vehicle 49.5 ± 0.5; for SOD, Cerebellum: n = 3-6, BTBR vehicle 49.7 ± 1.3; for SOD, Striatum: n = 3-6, BTBR vehicle 51.8 ± 1.2
Experimental: as §1
To assess the activity of antioxidant enzymes Superoxide dismutase (SOD) and Catalase (CAT), commercially available kits were used, following the manufacturer’s instructions, and as previously reported. Cayman assay kits (Cayman Chemicals Company, Ann Arbor, MI, USA) were used to assess antioxidant enzyme (superoxide dismutase (SOD) and catalase (CAT)) activities in experimental animals. Catalase assay: Twenty microliters of samples or standards and 30 μL of methanol was added to the assay buffer (100 μL) in 96-well plates. To this mixture, twenty microliter of hydrogen peroxide was added and incubated for 20 min at room temperature (RT) to initiate the reaction. Following incubation, 30 μL of potassium hydroxide was used to terminate the reaction, followed by subsequent addition of catalase purpald (30 μL) and catalase potassium periodate (10 μL). The plate was incubated for 5 min at room temperature in a shaker and the plate was read at 540 nm using a microplate reader. Catalase activity was expressed as nmol/min/mg protein. Superoxide dismutase assay: ten microliters of sample or standard was added in 96-well plates. Twenty microliters of xanthine oxidase were added to initiate the reaction. The reaction mixture was mixed for few seconds and incubated (covered) for 30 min at room temperature (RT). Absorbance was read at 450 nm using microplate reader. The activity of SOD was expressed as units/mg protein.

| SMILES | GSH, Striatum (glutathione (GSH)) | GSH, Cerebellum (glutathione (GSH)) | GSH, Prefrontal Cortex (glutathione (GSH)) | GSH, Hippocampus (glutathione (GSH)) | percentage of spontaneous alternation vs vehicle-treated B6 mice (BTBR and B6 mice) | percentage of spontaneous alternation vs vehicle-treated BTBR mice (BTBR and B6 mice) | SOD, Prefrontal Cortex [1] | SOD, Hippocampus [1] | SOD, Cerebellum [1] | SOD, Striatum [1] |
| --- | --- | --- | --- | --- | --- | --- | --- | --- | --- | --- |
| COc1ccccc1N1CCN(CCCCNC(=O)c2ccc3cc(OCCCN4CCCCC4)ccc3c2)CC1 [ST-2223, N-(4-(4-(2-methoxyphenyl)piperazin-1-yl)butyl)-6-(3-(piperidin-1-yl)propoxy)-2-naphthamide] | 1007 ± 93.1 µM GSH/mg protein | 1108 ± 41.1 µM GSH/mg protein | 1212 ± 302.6 µM GSH/mg protein | 916 ± 4.2 µM GSH/mg protein | did not alter | significantly increased | 43.2 ± 3.4 units/mg protein | 48.1 ± 4.2 units/mg protein | 64.3 ± 1.0 units/mg protein | 51.2 ± 7.7 units/mg protein |
| CC12CC3CC(C)(C1)CC(N)(C3)C2 [MEM, memantine] | 915.5 ± 97.3 µM GSH/mg protein | 877 ± 55.7 µM GSH/mg protein | 719.3 ± 50.0 µM GSH/mg protein |  | did not alter | significantly increased | 44.9 ± 2.2 units/mg protein | 41.4 ± 3.4 units/mg protein | 64.4 ± 3.1 units/mg protein | 66.47 ± 4.4 units/mg protein |
| O=C1CCc2ccc(OCCCCN3CCN(c4cccc(Cl)c4Cl)CC3)cc2N1 [ARP, aripiprazole] | 1139 ± 74.6 µM GSH/mg protein | 1030 ± 36.2 µM GSH/mg protein | 935 ± 98.0 µM GSH/mg protein | 611.5 ± 62.6 µM GSH/mg protein | did not alter | failed to significantly mitigate | 54.0 ± 5.2 units/mg protein | 51.8 ± 2.0 units/mg protein | 56.4 ± 1.1 units/mg protein | 65.7 ± 7.7 units/mg protein |
